Seven compounds from PubChem BioAssay (NCI) can be followed below.

Test in all cases: DTP human tumour cell line panel, 48 h
Experiment [1] relates to RPMI-8226 leukemia.
For experiment [2], the system named is NCI-H460 lung.
Experiment [3] relates to SK-MEL-5 melanoma.
For experiment [4], the system named is CCRF-CEM leukemia.
Experiment [5] deals with HOP-62 NSCLC.
Experiment [6] relates to UACC-257 melanoma.
Experiment [7] relates to LOX IMVI melanoma.
Experiment [8] has as its system 786-0 renal.
For experiment [9], the system named is MDA-MB-435.
Experiment [10] concerns HL-60(TB) leukemia.
Experiment [11] relates to KM12 colon.
For experiment [12], the system named is SN12C renal.
Experiment [13] has as its system SNB-75 CNS.
The subject of experiment [14] is HCC-2998 colon.
In experiment [15] the test system is BT-549 breast.
Experiment [16] relates to HT29 colon.
Experiment [17] relates to SK-MEL-28 melanoma.
In experiment [18] the test system is EKVX NSCLC.
Experiment [19] deals with MCF7 breast.
In experiment [20] the test system is SR leukemia.

SMILES strings stand for the structures.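 Step 1: Grow cells in 96-well plates. Step 2: Expose to compound for 48 hours at 5 concentrations. Step 3: Interpolate endpoints linearly; if unreached, use highest concentration. TGI: total growth inhibition.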 Where a SMILES comes first, the peptide text is derived from it. Bridges are numbered along the chain shown (N, C = ends). [ ]: non-standard residue; d: D form. The star is where a group is joined. Cbz = O=C(OCc1ccccc1)*; Aib = CC(C)(N)C(=O)O; OBn = c1ccc(CO*)cc1; βAla = NCCC(=O)O Bounds are passed on as bounds.

On to `CC(=O)NNc1nc(C)c(C(/C=C/c2cccc([N+](=O)[O-])c2)=N/NC(=S)NN)s1`, for which the TGI in experiment [1], in experiment [2], in experiment [3], in [4], in experiment [5] and in [6] was above 100 µM throughout. Moreover, the concentration for total growth inhibition (TGI) in [7], in [8], in experiment [9], in [10], in [11] and in experiment [12] was above 100 µM each time. The TGI in [13], in experiment [14], in experiment [15], in experiment [16], in experiment [17] and in experiment [18] was above 100 µM throughout. For the same compound, the TGI (commonly the concentration at which net growth stops) in [19] was above 100 µM.
On to `Cc1nnc([C@@]2(C)CC[C@H]3[C@@H](CC=C4C[C@@H](O)CC[C@@]43C)[C@@H]2CC#N)o1`, for which the TGI in [1], in experiment [3], in experiment [4], in experiment [5], in experiment [6] and in experiment [7] was above 100 µM each time. Also, the TGI in experiment [8], in [9], in experiment [10], in experiment [11], in experiment [12] and in experiment [13] was above 100 µM throughout. In addition, the TGI in [15], in [20], in experiment [16], in [18] and in [19] was above 100 µM in each case.
Regarding `Cc1cc(C)cc(Nc2nnc3n2S(=O)(=O)c2cc(C#N)c(Cl)cc2S3)c1`, the TGI worked out at 12.2 µM in [2]; 20.7 µM in experiment [3]; 4.32 µM in experiment [4]; 9.25 µM in [5]; 3.32 µM in experiment [6]; 9.03 µM in experiment [7]. Also, the TGI in experiment [8] was above 100 µM; in experiment [9], 10.4 µM; in experiment [10], 19.4 µM; in experiment [11] it was 4.46 µM; in experiment [12], 7.15 µM; in [13] it was 7.56 µM. Further, the TGI in experiment [15] was found to be 5.98 µM; in experiment [20], 3.42 µM; in experiment [16] it was 4.98 µM; in [17], 14.2 µM; in [18] it was 21.2 µM; in experiment [19], 6.56 µM.
For the compound `Clc1ccc2c(NCCCCN=Cc3ccccc3)ccnc2c1`, the TGI was above 100 µM in experiment [1]; 24.2 µM in experiment [2]; 26.5 µM in experiment [3]; above 100 µM in experiment [4]; 23.7 µM in experiment [5]; 26 µM in [6]. Moreover, the TGI in experiment [7] was above 100 µM; in experiment [8] it was 22.2 µM; in [9] it was 25.2 µM; in experiment [11] it was 20.8 µM; in [12], 21.5 µM; in [13] it was 24.1 µM. Besides, the total growth inhibition concentration (TGI) in [14] worked out at 27.8 µM; in experiment [15], 32.6 µM; in experiment [16], 21.6 µM; in [17] it was 29 µM; in experiment [18], 43.7 µM; in experiment [19], 28.6 µM.
Regarding `CSc1ccc(C2C(Cl)C(=O)N2NC(=O)c2c(Cl)c(Cl)c(Cl)c(Cl)c2-c2nc3ccccc3[nH]2)cc1` (centres undefined), the TGI is 35.7 µM in experiment [3]; above 100 µM in [5]; 51.3 µM in experiment [6]; 15.6 µM in experiment [7]; 76.8 µM in [8]; 37 µM in experiment [9]. The TGI in [10] was found to be 55.1 µM; in experiment [11] it was 34.8 µM; in experiment [12], 37 µM; in experiment [13], 35.4 µM; in [14], 37 µM; in [15], 48.1 µM. For the same compound, the TGI in [20] was above 100 µM; in experiment [16] it was above 100 µM; in experiment [17] it was 44.4 µM; in experiment [18] it was 37.9 µM; in experiment [19], above 100 µM.
For `CC1(C)NC(=O)C(NC(=O)C(CC(=O)OCc2ccccc2)NC(=O)OCc2ccccc2)CCCCNC(=O)CCNC1=O` (centres undefined) (Cbz-D(OBn)K[Aib][βAla]; lactam 2-C; configuration not given here), the TGI in experiment [1], in experiment [2], in experiment [3], in experiment [5], in experiment [7] and in experiment [8] was above 100 µM in each case. In addition, the total growth inhibition concentration (TGI) in [9], in experiment [10], in experiment [11], in experiment [12], in experiment [13] and in experiment [14] was above 100 µM throughout. The TGI in experiment [15], in experiment [16], in experiment [17], in experiment [18] and in experiment [19] was above 100 µM throughout.
`O=C(CCc1ccc(O)cc1)NCCc1ccc(O)cc1`: the concentration for total growth inhibition (TGI) in experiment [2], in experiment [3], in experiment [4], in experiment [5], in [6] and in [7] was above 100 µM in each case. In addition, the TGI in [8], in experiment [9], in experiment [10], in [11], in [12] and in experiment [14] was above 100 µM each time. The TGI in experiment [15], in experiment [20], in experiment [16], in experiment [17], in [18] and in experiment [19] was above 100 µM in each case.
